# Patent US20260176249A1, “PROTEIN KINASE INHIBITOR, PREPARATION METHOD THEREFOR, AND APPLICATION THEREOF” (SHANDONG LUYE PHARMACEUTICAL CO., LTD., priority 2021, published 2026)
# Where two headings read alike, the source gives them in different places.
# Assays:
# [1] = Metabolic stability in mouse liver microsomes; assay type: in vitro ADME; details: for CLint scaled at 1 µM / half-life at 1 µM / microsomal CLint at 1 µM: mouse; for CLint scaled at 1 µM / half-life at 1 µM: pH 7.4; for microsomal CLint at 1 µM: pH 7.4, read-out: CLint(mic)
# Procedure: (§1) a. Preparation of phosphate buffer: The phosphate buffer powder was dissolved in 100 mL of pure water to prepare a phosphate buffer solution with a pH of 7.4 and a concentration of 100 mM, which was stored in a 4° C. refrigerator for later use.
# (§2) b. All samples as well as the reference testosterone were dissolved in DMSO to obtain a 10 mM stock solution. The 10 mM stock solution was diluted to 100 μM with acetonitrile to obtain a working solution for later use.
# (§3) c. Preparation of liver microsome working solution: Each of the mouse, rat and human liver microsome stock solutions (at concentration of 20 mg/mL) was taken and diluted to 0.56 mg/mL with 100 mM phosphate buffer solution to obtain the liver microsome working solution.
# (§4) d. Preparation of solution: An appropriate amount of MgCl2 was weighed and used to prepare a MgCl2 solution at a concentration of 60 mM using 100 mM phosphate buffer solution. An appropriate amount of NADPH was weighed and used to prepare a NADPH solution at a concentration of 20 mM using 100 mM phosphate buffer solution. An equal volume of 60 mM MgCl2 solution was added to prepare an NADPH working solution containing 10 mM NADPH and 30 mM MgCl2. An acetonitrile solution containing 20 ng/mL tolbutamide was prepared as the stop solution.
# (§5) e. Liver microsome incubation: 2 μL of each compound and the positive drug testosterone working solution were added to 178 μL of liver microsome working solution (0.56 mg/mL), mixed gently, and pre-incubated in a vibrating constant temperature water bath pot at 37° C. for 10 min. After adding 20 μL of NADPH working solution, the mixture was placed in a vibrating constant temperature water bath pot at 37° C. and timed incubation was started for 5, 10, 20, 30 and 60 min.
# (§6) f. Stopping reaction: After the corresponding time of incubation, 400 μL of stop solution was added to stop the reaction, and then the sample was immediately shaken for 1 min. The sample was centrifuged at 13500 rpm for 10 min at 10° C. After centrifugation, the supernatant was removed, diluted with water according to the needs of each compound, and analyzed by LC-MS. For the 0-minute sample, the stop solution was first added and mixed evenly with the liver microsomes, and then the NADPH working solution was added. For the negative control sample, 20 μL of 30 mM MgCl2 solution was added instead of the NADPH working solution.
# (§7) T1/2 and CLint(mic) were calculated by the following formula.
# (§8) [formula] [formula] • CLint(mic)=0.693/T1/2/liver microsomal protein concentration during incubation (mg/mL) • CLint(ver)=CLint(mic)*liver microsomal protein (mg)/liver weight (g)*liver weight to body weight ratio
# (§9) Liver microsomal protein (mg)/liver weight (g): the value is 45 in both animal and human species.
# (§10) Liver weight to body weight ratio: the parameters for mice, rats and humans are 88, 40 and 20 g/kg respectively.
# [2] = Metabolic stability in rat liver microsomes; assay type: in vitro ADME; details: for CLint scaled at 1 µM / half-life at 1 µM / microsomal CLint at 1 µM: rat; for CLint scaled at 1 µM / half-life at 1 µM: pH 7.4; for microsomal CLint at 1 µM: pH 7.4, read-out: CLint(mic)
# Procedure: as §1, §2, §3, §4, §5, §6, §7, §8, §9, §10
# Caco-2 cells = test: Permeability and efflux transporter substrate evaluation in Caco-2 cells; assay type: in vitro ADME; design: Papp A→B at 120 min / Papp B→A at 120 min / efflux ratio at 120 min / Papp at 120 min: dose or concentration left out as unconfirmed; details: Caco-2
# Procedure: (§11) The cells were cultured in a carbon dioxide incubator for 21-28 days before being used for transport experiments. During this period, the culture medium was changed every four to five days.
# (§12) This project uses Hank's balanced salt buffer (pH 7.40±0.05) containing 10 mM HEPES as the transport buffer. The culture medium was removed from the culture plate and the cells were washed twice with preheated transport buffer (approximately 75 μL and 40 mL of transport buffer for each apical well and basolateral receiver plate respectively). The donor solution and receiver solution were added to the corresponding cell plate wells (75 and 250 μL for each apical and basolateral well respectively), and the bidirectional transport experiment was started (apical to basolateral (A-B) and basolateral to apical (B-A)). The test concentration of the test substance was […], and two replicate wells were made for each dosing concentration. The test concentration of Digoxin was […], with dosing bidirectionally; the test concentrations of nadolol and metoprolol were both […], and they were dosed in one direction (A-B direction), and two replicate wells were made for each of the three control compounds.
# (§13) The initial donor solution is the TO sample. After adding the sample, it was mixed with the transport buffer and stop solution in a certain proportion.
# (§14) All samples were vortexed, and then centrifuged at 3220×g for 20 min at 20° C. A proper volume of supernatant was transferred to a sample assay plate, and the sample was stored at 2-8° C. if it was not analyzed immediately after the plate was sealed, and LC MS/MS method was used for analysis.
# (§15) The Lucifer Yellow Rejection Assay was used to test the integrity of the Caco-2 cell layer.
# (§16) The following formulas were used to calculate the apparent permeability coefficient (Papp, cm/s), efflux ratio (ER), and solution recovery (%) (% Solution Recovery).
# (§17) [formula] [formula] [formula] • VR is the volume of the receiver side solution (side A is 0.075 mL, side B is 0.25 mL); Area is the relative surface area of the cell monolayer (0.0804 cm^2); Time is the incubation time (7200 s); C0 is the initial concentration (nM) of the test substance at the donor side or the peak area ratio of the control compound; VD is the volume of the donor side (side A is 0.075 mL, side B is 0.25 mL); CD and CR are the final concentration (nM) of the test substance at the donor side and the receiver side respectively or the peak area ratio of the control compound; • Lucifer yellow transmittance rate (% Lucifer Yellow) is calculated using the following formula:
# (§18) [formula] • RFUApical and RFUBasolateral are the relative fluorescence intensity of lucifer yellow at the apical and basolateral sides respectively. VApical and VBasolateral are the sample loading volumes at the apical and basolateral sides respectively (0.075 and 0.25 mL respectively).
# [3] = as above; assay type: in vitro ADME; design: Papp A→B at 120 min / Papp B→A at 120 min / efflux ratio at 120 min / Papp at 120 min: dose or concentration left out as unconfirmed; details: human; for efflux ratio at 120 min / Papp at 120 min: Caco-2, pH 7.4; for Papp at 120 min: read-out: Classification Permeability; for Papp A→B at 120 min / Papp B→A at 120 min: pH 7.4, pH 7.40; for Papp A→B at 120 min: Caco-2, apical to basolateral; for Papp B→A at 120 min: Caco-2, basolateral to apical
# Procedure: as §11, §12, §13, §14, §15, §16, §17, §18
# PLK1 kinase = target: T1, PLK1 kinase (Homo sapiens, UniProt P53350); test: Inhibitory activity on PLK1 kinase; assay type: biochemical; details: for Imax: maximum effect caused by the compound at the test concentration
# T1 construct: purchased Carnabio (Carna Biosciences) 05-157
# T1 sequence (P53350 whole entry): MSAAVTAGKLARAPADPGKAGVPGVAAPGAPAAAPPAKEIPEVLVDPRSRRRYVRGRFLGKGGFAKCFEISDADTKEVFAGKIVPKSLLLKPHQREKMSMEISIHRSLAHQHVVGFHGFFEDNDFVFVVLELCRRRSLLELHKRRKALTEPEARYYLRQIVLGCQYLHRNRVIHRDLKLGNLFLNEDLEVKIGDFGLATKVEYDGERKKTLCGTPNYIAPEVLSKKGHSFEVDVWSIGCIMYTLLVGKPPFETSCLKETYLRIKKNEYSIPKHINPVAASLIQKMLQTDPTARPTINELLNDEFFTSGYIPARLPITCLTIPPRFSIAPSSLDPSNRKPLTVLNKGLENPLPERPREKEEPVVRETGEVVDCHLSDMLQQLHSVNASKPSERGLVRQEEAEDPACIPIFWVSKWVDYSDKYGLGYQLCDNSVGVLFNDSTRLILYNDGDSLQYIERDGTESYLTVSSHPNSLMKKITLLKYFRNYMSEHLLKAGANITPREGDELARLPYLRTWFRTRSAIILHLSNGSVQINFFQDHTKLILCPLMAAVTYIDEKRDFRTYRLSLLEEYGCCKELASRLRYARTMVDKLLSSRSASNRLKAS
# Procedure: Detection solution PerkinElmer #TRF0218-M
# Detection instrument PerkinElemer EnVision
# a. Using the Echo machine, the compounds to be tested were diluted by 1:3 on a 384-well plate, and the highest concentration was 1 μM, with a total of 10 concentration points, and each concentration was tested in duplicate wells.
# b. 5 μL/well of PLK1 kinase and peptide substrate mixture were added to the assay plate (containing controls).
# d. The reaction was initiated by adding 5 μL/well of ATP solution;
# e. The assay plate was centrifuged at 1000 rpm for about 15 seconds, a film was used to seal the assay plate which was incubated at 23° C. for a period of time;
# f. A detection solution was added to all wells of the assay plate;
# g. The assay plate was centrifuged at 1000 rpm for approximately 15 seconds, a film was used to seal the assay plate which was incubated at 23° C. for 60 min.
# h. The assay plate was read on EnVision. The test results were analyzed using XLFIT5 software.
# [4] = Metabolic stability in human liver microsomes; assay type: in vitro ADME; details: for CLint scaled at 1 µM / half-life at 1 µM / microsomal CLint at 1 µM: human; for CLint scaled at 1 µM / half-life at 1 µM: pH 7.4; for microsomal CLint at 1 µM: pH 7.4, read-out: CLint(mic)
# Procedure: as §1, §2, §3, §4, §5, §6, §7, §8, §9, §10
# HCT116 cells = test: Inhibitory activity on HCT116 cell proliferation (ATPlite); assay type: cell-based; details: Homo sapiens
# Procedure: Cell culture medium: RPMI1640+10% FBS (GBICO)
# Cell culture plate: 96-well plate (Shanghai Jingan Biotechnology Co., Ltd.)
# Detection kit: ATPlite 1step Luminescence (PerkinElmer)
# Detection instrument: BioTek multifunctional microplate reader
# 2. Test method: HCT116 cells in the logarithmic growth phase were seeded into a white-wall clear-bottom 96-well plate at a density of 720 cells per well, and cultured overnight in a 37° C., 5% CO2 incubator. […] After adding the drug, culturing was continued for 72 h in a 37° C., 5% CO2 incubator.
# GraphPad Prism 7.0 was used to process the data, the cell inhibition rate curve was obtained and IC50 was calculated.
# [5] = PLK1 kinase, highest concentration 1 μM, 10 points, read-out: IC50
# [6] = HCT-116, HCT116 cells, 72 h, read-out: IC50
SMILES,Classification Efflux transporter substrate (Caco-2 cells),efflux ratio at 120 min [3],Papp at 120 min [3] [×10⁻⁶ cm/s],Papp A→B at 120 min [3] [×10⁻⁶ cm/s],Papp B→A at 120 min [3] [×10⁻⁶ cm/s],Imax (PLK1 kinase) [%],IC50 (PLK1 kinase; [5]) [nM],IC50 (HCT116 cells; [6]) [nM],further results
CN1CCN(c2ccc(OC(F)(F)F)c(Nc3ncc4ccc5c(C(N)=O)nn(C)c5c4n3)c2)CC1 [Compound 3],Very unlikely or not (ERa < 2.00),1.32,0.5 to 2.5,0.644,0.851,99.57,–,–,"60 min remaining amount [1]: 4.32%; Clearance rate [1]: High; CLint scaled at 1 µM [1]: 409 mL/min/kg; half-life at 1 µM [1]: 13.4 min; microsomal CLint at 1 µM [1]: 103 µL/min/mg; 60 min remaining amount [2]: 2.74%; Clearance rate [2]: High; CLint scaled at 1 µM [2]: 505 mL/min/kg; half-life at 1 µM [2]: 4.94 min; microsomal CLint at 1 µM [2]: 281 µL/min/mg; IC50 (PLK1 kinase): 0.714 nM; 60 min remaining amount [4]: 7.83%; Clearance rate [4]: High; CLint scaled at 1 µM [4]: 78.7 mL/min/kg; half-life at 1 µM [4]: 15.9 min; microsomal CLint at 1 µM [4]: 87.4 µL/min/mg; IC50 (HCT116 cells; HCT-116, 72 h): 93 nM"
CN1CCN(c2ccc(OC(F)(F)F)c(Nc3ncc4c(n3)-c3c(c(C(=O)NS(=O)(=O)C(F)(F)F)nn3CCO)CC4)c2)CC1 [Compound 8],Likely (ERa ≥ 2.00),> 30.3,< 0.5,< 0.48,14.5,95.96,14.7,3400,–
CN1CCN(c2ccc(OC(F)(F)F)c(Nc3ncc4c(n3)-c3c(c(C(=O)NS(=O)(=O)C5CC5)nn3CCO)CC4)c2)CC1 [Compound 9],Likely (ERa ≥ 2.00),> 25.4,< 0.5,< 0.254,6.43,72.68,327,> 10000,–
CN1CCN(c2ccc(OC(F)(F)F)c(Nc3ncc4c(n3)-c3c(c(C(=O)NO)nn3CCO)CC4)c2)CC1 [Compound 10],Likely (ERa ≥ 2.00),> 51.7,< 0.5,< 0.48,24.8,99.92,1.16,49,"IC50 (HCT116 cells; HCT-116, HCT116 cells, 72 h, read-out: half inhibitory concentration): 49 nM"
CN1CCN(c2ccc(OC(F)(F)F)c(Nc3ncc4c(n3)-c3c(c(C(=O)NOCCO)nn3C)CC4)c2)CC1 [Compound 11],Likely (ERa ≥ 2.00),22.1,0.5 to 2.5,1.13,25,99.65,1.8,205,–
CN1CCN(c2ccc(OC(F)(F)F)c(Nc3ncc4c(n3)-c3c(c(C(=O)NNC(N)=O)nn3C)CC4)c2)CC1 [Compound 12],Likely (ERa ≥ 2.00),> 56.7,< 0.5,< 0.264,15,–,–,–,"60 min remaining amount [1]: 26.9%; Clearance rate [1]: Medium; CLint scaled at 1 µM [1]: 163 mL/min/kg; half-life at 1 µM [1]: 33.6 min; microsomal CLint at 1 µM [1]: 41.2 µL/min/mg; 60 min remaining amount [2]: 7.43%; Clearance rate [2]: High; CLint scaled at 1 µM [2]: 153 mL/min/kg; half-life at 1 µM [2]: 16.3 min; microsomal CLint at 1 µM [2]: 85 µL/min/mg; 60 min remaining amount [4]: 70.8%; Clearance rate [4]: Medium; CLint scaled at 1 µM [4]: 10.4 mL/min/kg; half-life at 1 µM [4]: 119 min; microsomal CLint at 1 µM [4]: 11.6 µL/min/mg; IC50 (HCT116 cells; HCT-116, 72 h): 861 nM"
CN1C2CCC1CN(c1ccc(OC(F)(F)F)c(Nc3ncc4c(n3)-c3c(c(C(N)=O)nn3CCO)CC4)c1)C2 [Compound 23],Likely (ERa ≥ 2.00),> 82.6,< 0.5,< 0.28,23.1,98.18,3.66,214,–
